{"source": "ChEMBL document CHEMBL1201862", "about": "“PubChem BioAssay data set” (2004)", "assay_in_all_cases": "NCI anticancer screen, dose series, 48 h", "key": {"[1]": {"system": "786-0"}, "[2]": {"system": "A498"}, "[3]": {"system": "A549"}, "[4]": {"system": "ACHN"}, "[5]": {"system": "CAKI-1"}, "[6]": {"system": "CCRF-CEM"}, "[7]": {"system": "COLO 205"}, "[8]": {"system": "DLD-1"}, "[9]": {"system": "DMS-114"}, "[10]": {"system": "DMS-273"}, "[11]": {"system": "EKVX"}, "[12]": {"system": "HCC 2998"}, "[13]": {"system": "HCT-116"}, "[14]": {"system": "HCT-15"}, "[15]": {"system": "HL-60"}, "[16]": {"system": "HOP-18"}, "[17]": {"system": "HOP-62"}, "[18]": {"system": "HOP-92"}, "[19]": {"system": "HT-29"}, "[20]": {"system": "IGROV-1"}, "[21]": {"system": "K562"}, "[22]": {"system": "KM-20L2"}, "[23]": {"system": "KM12"}, "[24]": {"system": "LOX IMVI"}, "[25]": {"system": "LXFL 529"}, "[26]": {"system": "M14"}, "[27]": {"system": "M19-MEL"}, "[28]": {"system": "MOLT-4"}, "[29]": {"system": "Malme-3M"}, "[30]": {"system": "NCI-H226"}, "[31]": {"system": "NCI-H23"}, "[32]": {"system": "NCI-H460"}, "[33]": {"system": "NCI-H522"}, "[34]": {"system": "OVCAR-3"}, "[35]": {"system": "OVCAR-4"}, "[36]": {"system": "OVCAR-5"}, "[37]": {"system": "OVCAR-8"}, "[38]": {"system": "RPMI-8226"}, "[39]": {"system": "RXF 393"}, "[40]": {"system": "RXF 631"}, "[41]": {"system": "SF-268"}, "[42]": {"system": "SF-295"}, "[43]": {"system": "SF-539"}, "[44]": {"system": "SK-MEL-28"}, "[45]": {"system": "SK-MEL-2"}, "[46]": {"system": "SK-MEL-5"}, "[47]": {"system": "SK-OV-3"}, "[48]": {"system": "SN12C"}, "[49]": {"system": "SNB-19"}, "[50]": {"system": "SNB-75"}, "[51]": {"system": "SNB-78"}, "[52]": {"system": "SR"}, "[53]": {"system": "SW-620"}, "[54]": {"system": "TK-10"}, "[55]": {"system": "U-251"}, "[56]": {"system": "UACC-257"}, "[57]": {"system": "UACC-62"}, "[58]": {"system": "UO-31"}, "[59]": {"system": "XF498"}}, "note": "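Five compound concentrations were applied to cells in 96-well plates for 48 hours; endpoints were derived by simple linear interpolation of the resulting dose-response curve. The concentration for 50% growth inhibition is given as GI50.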 Active and inactive are the calls of the source. No stated cut-off is given here; in the data, active = GI50 up to about 1.1 µM and inactive = higher."}
{"compound": "CC[C@@H](C)[C@@H]1NC(=O)C(C(C)=O)=C1O", "values": [{"measurement": "GI50", "setting": "[1]", "value": "22.4 µM (inactive)"}, {"measurement": "GI50", "setting": "[2]", "value": "24.4 µM (inactive)"}, {"measurement": "GI50", "setting": "[3]", "value": "26.4 µM (inactive)"}, {"measurement": "GI50", "setting": "[4]", "value": "16.5 µM (inactive)"}, {"measurement": "GI50", "setting": "[5]", "value": "0.456 µM (active)"}, {"measurement": "GI50", "setting": "[6]", "value": "5.19 µM (inactive)"}, {"measurement": "GI50", "setting": "[7]", "value": "17.9 µM (inactive)"}, {"measurement": "GI50", "setting": "[8]", "value": "20.9 µM (inactive)"}, {"measurement": "GI50", "setting": "[9]", "value": "31.8 µM (inactive)"}, {"measurement": "GI50", "setting": "[10]", "value": "24.4 µM (inactive)"}, {"measurement": "GI50", "setting": "[11]", "value": "27.7 µM (inactive)"}, {"measurement": "GI50", "setting": "[12]", "value": "30.8 µM (inactive)"}, {"measurement": "GI50", "setting": "[13]", "value": "18.7 µM (inactive)"}, {"measurement": "GI50", "setting": "[14]", "value": 20.2, "unit": "µM"}, {"measurement": "GI50", "setting": "[15]", "value": "53.8 µM (inactive)"}, {"measurement": "GI50", "setting": "[16]", "value": "12.9 µM (inactive)"}, {"measurement": "GI50", "setting": "[17]", "value": "18.3 µM (inactive)"}, {"measurement": "GI50", "setting": "[18]", "value": "43.4 µM (inactive)"}, {"measurement": "GI50", "setting": "[19]", "value": "32.1 µM (inactive)"}, {"measurement": "GI50", "setting": "[20]", "value": "25.6 µM (inactive)"}, {"measurement": "GI50", "setting": "[21]", "value": "24 µM (inactive)"}, {"measurement": "GI50", "setting": "[22]", "value": "23.2 µM (inactive)"}, {"measurement": "GI50", "setting": "[23]", "value": "15.6 µM (inactive)"}, {"measurement": "GI50", "setting": "[24]", "value": "26.1 µM (inactive)"}, {"measurement": "GI50", "setting": "[25]", "value": "20.7 µM (inactive)"}, {"measurement": "GI50", "setting": "[26]", "value": "17.1 µM (inactive)"}, {"measurement": "GI50", "setting": "[27]", "value": "11.9 µM (inactive)"}, {"measurement": "GI50", "setting": "[28]", "value": "11.4 µM (inactive)"}, {"measurement": "GI50", "setting": "[29]", "value": "25.1 µM (inactive)"}, {"measurement": "GI50", "setting": "[30]", "value": "31.7 µM (inactive)"}, {"measurement": "GI50", "setting": "[31]", "value": "20.1 µM (inactive)"}, {"measurement": "GI50", "setting": "[32]", "value": "15.3 µM (inactive)"}, {"measurement": "GI50", "setting": "[33]", "value": "20.1 µM (inactive)"}, {"measurement": "GI50", "setting": "[34]", "value": "27.6 µM (inactive)"}, {"measurement": "GI50", "setting": "[35]", "value": "27.1 µM (inactive)"}, {"measurement": "GI50", "setting": "[36]", "value": "40.7 µM (inactive)"}, {"measurement": "GI50", "setting": "[37]", "value": "24.9 µM (inactive)"}, {"measurement": "GI50", "setting": "[38]", "value": "26.2 µM (inactive)"}, {"measurement": "GI50", "setting": "[39]", "value": "26.7 µM (inactive)"}, {"measurement": "GI50", "setting": "[40]", "value": "15.1 µM (inactive)"}, {"measurement": "GI50", "setting": "[41]", "value": "24.1 µM (inactive)"}, {"measurement": "GI50", "setting": "[42]", "value": "26.9 µM (inactive)"}, {"measurement": "GI50", "setting": "[43]", "value": "23.1 µM (inactive)"}, {"measurement": "GI50", "setting": "[44]", "value": "3.02 µM (inactive)"}, {"measurement": "GI50", "setting": "[45]", "value": "15.3 µM (inactive)"}, {"measurement": "GI50", "setting": "[46]", "value": "15.6 µM (inactive)"}, {"measurement": "GI50", "setting": "[47]", "value": "23.2 µM (inactive)"}, {"measurement": "GI50", "setting": "[48]", "value": "25.1 µM (inactive)"}, {"measurement": "GI50", "setting": "[49]", "value": "0.297 µM (active)"}, {"measurement": "GI50", "setting": "[50]", "value": "25.4 µM (inactive)"}, {"measurement": "GI50", "setting": "[51]", "value": "23.3 µM (inactive)"}, {"measurement": "GI50", "setting": "[52]", "value": "14.9 µM (inactive)"}, {"measurement": "GI50", "setting": "[53]", "value": "24.2 µM (inactive)"}, {"measurement": "GI50", "setting": "[54]", "value": "40.6 µM (inactive)"}, {"measurement": "GI50", "setting": "[55]", "value": "18.8 µM (inactive)"}, {"measurement": "GI50", "setting": "[56]", "value": "34.2 µM (inactive)"}, {"measurement": "GI50", "setting": "[57]", "value": "12.5 µM (inactive)"}, {"measurement": "GI50", "setting": "[58]", "value": "30.4 µM (inactive)"}, {"measurement": "GI50", "setting": "[59]", "value": "80.9 µM (inactive)"}]}
